# Data as given in patent US8450271B2, “Peptide-based scaffolds for cartilage regeneration and methods for their use” (Northwestern University, priority 2009, dated 2013).
# Where no end group is shown, it is not given here. The star is where a group is joined. Lauroyl = CCCCCCCCCCCC(=O)*
# Key:
# recombinant TGF-β1 = recombinant TGF-β1 (Homo sapiens, UniProt P01137); settings: among all possible 7-mer peptide sequences; cited from earlier work
# [1] = test system: Rabbit Full Thickness Articular Cartilage Defects; assay: Animal observation and gross pathology of rabbit knee cartilage defects at 12 weeks; type: in vivo, New Zealand White Rabbits; settings: gross examination at 12 weeks
# Procedure: Animal study was conducted at Northwestern University (Chicago, Ill.) in accordance with a protocol approved by the University's Animal Care and Usage Committee (ACUC). Ten (10) male New Zealand White Rabbits (weighing 3-3.5 kg) were anesthetized by intramuscular injection of ketamine at 30-40 mg/kg and xylazine 5-7 mg/kg. Isoflourane (1-3%) and oxygen were supplied by face mask until the animal was induced to sedation and general anesthesia for the entire procedure. Life support monitoring was supervised by veterinarians at Northwestern University's Center for Comparative Medicine (CCM, Chicago, Ill.). Under sterile aseptic technique, a midline 2-cm incision was made with the knee flexed at 20 degrees and subsequently a medial parapatellar capsulotomy was performed and the patella was translated laterally to expose the articular surface of the trochlea. Two full thickness chondral defects 2-mm in diameter were created in the trochlea (proximal-medial and distal-lateral) using curettes. […]
# Post-operatively each rabbit was given intramuscular (IM) antibiotics (Baytril 72 hours duration) and IM pain medicine (Buprenex 24 hours duration). Signs of local or systemic infection were recorded as well as the general health and recovery of the rabbits. Rabbits were also evaluated for ability to weight bear and mobility within cages. […]
# [2] = test system: Rabbit Full Thickness Articular Cartilage Defects; assay: Histological evaluation (O'Driscoll scoring) of cartilage regeneration after microfracture in rabbit articular cartilage defect model; type: in vivo, New Zealand White Rabbits
# Procedure: Animal study was conducted at Northwestern University (Chicago, Ill.) in accordance with a protocol approved by the University's Animal Care and Usage Committee (ACUC). Ten (10) male New Zealand White Rabbits (weighing 3-3.5 kg) were anesthetized by intramuscular injection of ketamine at 30-40 mg/kg and xylazine 5-7 mg/kg. Isoflourane (1-3%) and oxygen were supplied by face mask until the animal was induced to sedation and general anesthesia for the entire procedure. Life support monitoring was supervised by veterinarians at Northwestern University's Center for Comparative Medicine (CCM, Chicago, Ill.). Under sterile aseptic technique, a midline 2-cm incision was made with the knee flexed at 20 degrees and subsequently a medial parapatellar capsulotomy was performed and the patella was translated laterally to expose the articular surface of the trochlea. Two full thickness chondral defects 2-mm in diameter were created in the trochlea (proximal-medial and distal-lateral) using curettes. The articular cartilage, including the calcified cartilage layer, was completely removed and subchondral bone was exposed using a micro-curette as shown in FIG. 4a. Care was taken to not disrupt the subchondral bone, and sharp edges were created at the transition zone with the surrounding intact cartilage. Microfracture was performed within the defects by creating 3 holes spaced equally apart, and 2-mm deep to subchondral bone with a micro-awl. Marrow blood was seen emerging out of each microfracture hole and was allowed to infiltrate the cartilage defect (see FIG. 4b), which was then treated as described in Example 4.2 by application of the TGF-binding peptide amphiphile gel, or a control gel, with or without the addition of exogenous recombinant TGF-β1.
# Post-operatively each rabbit was given intramuscular (IM) antibiotics (Baytril 72 hours duration) and IM pain medicine (Buprenex 24 hours duration). Signs of local or systemic infection were recorded as well as the general health and recovery of the rabbits. Rabbits were also evaluated for ability to weight bear and mobility within cages. At 12-weeks post-surgery rabbits were euthanized by injection of pentobarbital intravenously with a secondary measure of bilateral thoracotomy. Subsequently, the distal femur was harvested and processed for histological analysis.
# Two full-thickness defects were created in each knee, resulting in 4 defects per rabbit (or 40 defects total for the 10 rabbits studied). Rabbit knees were divided into 4 groups, with both defects in each knee receiving the same treatment, and the contralateral knee serving as a control to account for any systemic effects. A total volume of 10 microliters (uL) of the test solutions were administered directly to each cartilage defect by micropipette, using sterile, disposable plastic tips. The treatment received by each group is summarized as follows:
# In order to induce gelation of the peptide amphiphile solutions in situ in the defect site, 8 uL of a 12.5 mg/mL PA solution in phosphate-buffered saline (PBS) was administered followed immediately by 2 uL of a 0.5 M CaCl2 (in water), resulting in a final concentration of 10 mg/mL of the peptide amphiphile and 100 mM CaCl2. Recombinant human TGF-β1 (rhTGF-β1, Peprotech Inc.) was included in the PA solutions for Group 1, 2 and 3, in a concentration of […], resulting in a total dose of 1 ng per defect at the treatment dose of 10 uL. For animals receiving the TGF-binding peptide amphiphile (SEQ ID NO:4) this molecule was mixed at 10 mol % with the filler peptide amphiphile (SEQ ID NO:8) (a 1:9 molecular ratio). Each defect received 0.1 mg total peptide amphiphile (10 mg/mL in a 10 uL dose), either filler PA alone (Group 2) or filler PA plus TGF-binding PA (Group 3 and 4).
# After the animals were sacrificed and tissue harvested at 12 weeks, extracted femur specimens were fixed in 10% neutral buffered formalin, decalcified for 24 hours, and the tissue processed for paraffin embedding. […]
# [3] = O'Driscoll score = 0, 1, 2 or 3, Mean ± SD, 12-weeks post-treatment
# [4] = O'Driscoll score = 0, 1 or 2, Mean ± SD, 12-weeks post-treatment
# Chain of recombinant TGF-β1 (P01137 279-390 limits assumed): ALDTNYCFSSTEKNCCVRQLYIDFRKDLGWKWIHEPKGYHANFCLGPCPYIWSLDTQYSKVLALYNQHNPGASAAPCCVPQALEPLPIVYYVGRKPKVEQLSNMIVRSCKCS
substance,measurement,setting,value
HSNGLPL,binding to recombinant TGF-β1 (phage display),recombinant TGF-β1,"strong, specific binding sequence"
HSNGLPLGGGSEEEAAAVVV(K)-CO(CH2)10CH3 (HSNGLPLGGGSEEEAAAVVVK(Lauroyl)) [TGF-binding PA],"macroscopic appearance of repair tissue (tissue fill, defect boundary)",[1],significantly more hyaline-like tissue filling the defects
rhTGF-β1: Recombinant human TGF-β1 (Peprotech Inc.); Group 1: 10 uL of PBS with 1 ng of rhTGF-β1,"qualitative assessment of histological sections (tissue morphology, defect fill, Safranin-O and Type II collagen staining)","[2]; 12 weeks, compared to controls",few had complete filling of the defect area
same,Degenerative Changes,[2]; [3],2.70 ± 0.35
same,Hypocellularity,[2]; [3],1.96 ± 0.72
same,Safranin-O staining of matrix,[2]; [3],1.48 ± 0.60
same,Surface regularity,[2]; [3],2.00 ± 0.80
same,Bonding to adjacent cartilage,[2]; [4],1.33 ± 0.53
same,Chondrocyte clustering,[2]; [4],1.26 ± 0.40
same,Structural integrity,[2]; [4],1.07 ± 0.62
same,Thickness,[2]; [4],1.15 ± 0.60
same,Cellular morphology,"[2]; O'Driscoll score = 0, 2, or 4, Mean ± SD, 12-weeks post-treatment",2.56 ± 1.43
same,Total (max. score = 24),"[2]; O'Driscoll total histological score, Mean ± SD, 12-weeks post-treatment",15.52 ± 4.74
same,O'Driscoll histological score,"[2]; maximum possible score of 24, 12 weeks",15.5±4.7
same,defects with <50% thickness compared to the surrounding cartilage,"[2]; number of defects, 12 weeks",1 of 9
same,defects with mild chondrocyte clustering,"[2]; number of defects, 12 weeks",7 of 9
same,defects with normal cellularity in the regenerated tissue,"[2]; number of defects, 12 weeks",2 of 9
same,defects with regenerated tissue completely bonded to the adjacent cartilage,"[2]; number of defects, 12 weeks",3 of 9
same,defects with >50% but <100% (50%-100%) thickness compared to the surrounding cartilage,"[2]; number of remaining defects, 12 weeks",8
